The nature of data set [1]: Intrinsic clearance in rat hepatocytes assessed per million cells. It counts as ADME, cell-based, Hepatocyte. Conditions: read-out: CLH.
Data set [2] deals with T1, Very long chain fatty acid elongase 1 (Homo sapiens, UniProt Q9BW60).
T1 sequence (Q9BW60 whole entry): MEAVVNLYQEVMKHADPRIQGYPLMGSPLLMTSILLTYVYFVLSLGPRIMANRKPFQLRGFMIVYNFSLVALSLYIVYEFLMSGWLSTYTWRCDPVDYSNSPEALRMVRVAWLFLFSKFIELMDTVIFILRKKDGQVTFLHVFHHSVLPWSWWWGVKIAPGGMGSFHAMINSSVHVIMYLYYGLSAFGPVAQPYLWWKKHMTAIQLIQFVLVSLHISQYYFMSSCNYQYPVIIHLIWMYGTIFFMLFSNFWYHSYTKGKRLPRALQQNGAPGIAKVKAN
The data set is described as follows: Inhibition of ELOVL1 (unknown origin) using C22-acyl-CoA as substrate by radiometric enzyme assay.

Data set [3] deals with T1, Very long chain fatty acid elongase 1. Kind of data set: Inhibition of ELOVL1 in human HEK2936E cells assessed as reduction of C26:0 LPC synthesis incubated for 48 hrs by cellular assay. It counts as cell-based.
The nature of data set [4]: Intrinsic clearance in human hepatocytes assessed per million cells. Type of data set: ADME, cell-based, Hepatocyte. Conditions: read-out: CLH.

Turning to `Cc1cc(-n2ccc(NC(=O)C3(c4ccccc4F)CC3)n2)ccn1`, the figures for the hepatocyte CLint in data set [1] and in data set [4] were 78 µL/min/1e6 cells and 7 µL/min/1e6 cells, respectively. In addition, the IC50 (in general, the concentration needed to halve the response being measured) worked out at 21000 nM in data set [2] and 1600 nM in data set [3].

`O=C(Cc1ccccc1F)Nc1cnn(-c2ccccc2)n1`: the hepatocyte CLint in data set [1] worked out at 518 µL/min/1e6 cells; in data set [4], 101 µL/min/1e6 cells. Moreover, the values for the IC50 in data set [2] and in data set [3] were over 8000 nM and 900 nM, respectively.

On to `O=C(Nc1ccn(-c2ccncc2)n1)C1(c2ccccc2F)CC1`, for which the hepatocyte CLint in data set [1] worked out at 80 µL/min/1e6 cells. Further, the IC50 was determined as 1500 nM in data set [2] and 80 nM in data set [3].

Consider `Nc1cc(-n2ccc(NC(=O)C3(c4ccccc4F)CC3)n2)ccn1`, for which the figures for the hepatocyte CLint in data set [1] and in data set [4] were 54 µL/min/1e6 cells and 9 µL/min/1e6 cells, respectively. Moreover, the IC50 in data set [2] is over 20000 nM; in data set [3], 1900 nM.

`O=C(Cc1ccccc1F)Nc1ccnc(-c2ccccc2)n1` showed an IC50 in data set [2] of over 50000 nM.

For the compound `O=C(Cc1ccccc1F)Nc1ncc(-c2ccccc2)o1`, the IC50 in data set [2] is over 50000 nM.

With `O=C(Nc1ccn(-c2cncc(F)c2)n1)C1(c2cccc(F)c2F)CC1`, the values for the hepatocyte CLint in data set [1] and in data set [4] were 54 µL/min/1e6 cells and 6 µL/min/1e6 cells, respectively. Also, the IC50 in data set [2] is 1300 nM; in data set [3], 140 nM.

`O=C(Nc1ccn(-c2ccncn2)n1)C1(c2ccccc2F)CC1`: the hepatocyte CLint in data set [1] amounted to 59 µL/min/1e6 cells; in data set [4], 14 µL/min/1e6 cells. Moreover, the 50% inhibitory concentration (IC50) in data set [2] came to 900 nM; in data set [3] it was 30 nM.

Turning to `COc1ccccc1C1(C(=O)Nc2ccn(-c3cncc(F)c3)n2)CC1`, the half-maximal inhibitory concentration (IC50) in data set [2] was over 50000 nM; in data set [3], over 5000 nM.

With `O=C(Nc1ccn(-c2cncc(F)c2)n1)C1(c2ccc(Cl)cc2)CC1`, the hepatocyte CLint was determined as 133 µL/min/1e6 cells in data set [1] and 5 µL/min/1e6 cells in data set [4]. In addition, the figures for the 50% inhibitory concentration (IC50) in data set [2] and in data set [3] were 2400 nM and 340 nM, respectively.

`O=C(Cc1ccccc1)Nc1ccn(-c2ccccc2)n1`: the hepatocyte CLint in data set [1] was determined as 519 µL/min/1e6 cells; in data set [4], 90 µL/min/1e6 cells. The results for the IC50 in data set [2] and in data set [3] were 2700 nM and 70 nM, respectively.

Take `O=C(Cc1ccccc1F)Nc1cccc(-c2ccccc2)n1`: the concentration for half-maximal inhibition (IC50) in data set [2] is over 50000 nM; in data set [3] it was over 5000 nM.

Take `CC[C@@H](C(=O)Nc1ccn(-c2ccccc2)n1)c1ccccc1`: the values for the hepatocyte CLint in data set [1] and in data set [4] were 123 µL/min/1e6 cells and 88 µL/min/1e6 cells, respectively. For the same compound, the 50% inhibitory concentration (IC50) came to 9500 nM in data set [2] and 650 nM in data set [3].

Take `O=C(Nc1ccn(-c2cncc(F)c2)n1)C1(c2ccccc2Cl)CC1`: the hepatocyte CLint worked out at 61 µL/min/1e6 cells in data set [1] and 8 µL/min/1e6 cells in data set [4]. Besides, the IC50 in data set [2] came to 4500 nM; in data set [3], 110 nM.

Consider `O=C(Cc1ccccc1F)Nc1ccn(-c2ccccc2)n1`, for which the hepatocyte CLint is 182 µL/min/1e6 cells in data set [1] and 55 µL/min/1e6 cells in data set [4]. In addition, the half-maximal inhibitory concentration (IC50) in data set [2] turned out to be 1600 nM; in data set [3], 60 nM.

For the compound `O=C(Nc1ccn(-c2ccccc2)n1)C1(c2ccccc2)COC1`, the hepatocyte CLint in data set [1] was 32 µL/min/1e6 cells; in data set [4], 31 µL/min/1e6 cells. Further, the IC50 is 8200 nM in data set [2] and 260 nM in data set [3].

As to `Cc1ccccc1C1(C(=O)Nc2ccn(-c3cncc(F)c3)n2)CC1`, the hepatocyte CLint in data set [1] is 400 µL/min/1e6 cells; in data set [4] it was 40 µL/min/1e6 cells. The IC50 in data set [2] is 7500 nM; in data set [3] it was 400 nM.

With `COc1cccc(C2(C(=O)Nc3ccn(-c4cncc(F)c4)n3)CC2)c1`, the hepatocyte CLint in data set [1] stood at 355 µL/min/1e6 cells; in data set [4] it was 19 µL/min/1e6 cells. For the same compound, the IC50 came to 1500 nM in data set [2] and 170 nM in data set [3].

In the case of `O=C(Cc1ccccc1F)Nc1cnn(-c2ccccc2)c1`, the values for the IC50 in data set [2] and in data set [3] were over 50000 nM and over 5000 nM, respectively.

For `O=C(Nc1ccn(-c2ccccc2)n1)C1(c2ccccc2F)CC1`, the hepatocyte CLint in data set [1] was 237 µL/min/1e6 cells; in data set [4], 30 µL/min/1e6 cells. Also, the half-maximal inhibitory concentration (IC50) in data set [2] was 500 nM; in data set [3], 12 nM.

On to `CC(C)(C(=O)Nc1ccn(-c2ccccc2)n1)c1ccccc1`, for which the results for the hepatocyte CLint in data set [1] and in data set [4] were 262 µL/min/1e6 cells and 18 µL/min/1e6 cells, respectively. For the same compound, the IC50 in data set [2] is 2700 nM; in data set [3] it was 300 nM.

On to `O=C(Nc1ccn(-c2ccnc(C(F)(F)F)c2)n1)C1(c2ccccc2F)CC1`, for which the results for the hepatocyte CLint in data set [1] and in data set [4] were 51 µL/min/1e6 cells and 8 µL/min/1e6 cells, respectively. In addition, the IC50 in data set [2] was over 50000 nM; in data set [3], over 5000 nM.

As to `O=C(Nc1ccn(-c2ccccc2)n1)C1(c2ccccc2)CC1`, the figures for the hepatocyte CLint in data set [1] and in data set [4] were 111 µL/min/1e6 cells and 38 µL/min/1e6 cells, respectively. For the same compound, the concentration for half-maximal inhibition (IC50) in data set [2] was 500 nM; in data set [3], 20 nM.

For the compound `N#Cc1ccc(C2(C(=O)Nc3ccn(-c4cncc(F)c4)n3)CC2)cc1`, the hepatocyte CLint in data set [1] was found to be 8 µL/min/1e6 cells; in data set [4], 5 µL/min/1e6 cells. In addition, the results for the IC50 in data set [2] and in data set [3] were 2200 nM and 110 nM, respectively.

Turning to `CC1(C)CC1(C(=O)Nc1ccn(-c2ccccc2)n1)c1ccccc1` (configuration not stated), the hepatocyte CLint in data set [1] came out at 239 µL/min/1e6 cells; in data set [4] it was 50 µL/min/1e6 cells. For the same compound, the concentration for half-maximal inhibition (IC50) is 4400 nM in data set [2] and 900 nM in data set [3].

On to `O=C(Cc1ccccc1F)Nc1ncn(-c2ccccc2)n1`, for which the IC50 in data set [2] is over 50000 nM; in data set [3] it was over 5000 nM.

For the compound `COc1ccc(C2(C(=O)Nc3ccn(-c4cncc(F)c4)n3)CC2)cc1`, the hepatocyte CLint is 103 µL/min/1e6 cells in data set [1] and 11 µL/min/1e6 cells in data set [4]. Moreover, the 50% inhibitory concentration (IC50) was 3700 nM in data set [2] and 640 nM in data set [3].

Regarding `CCOC(C(=O)Nc1ccn(-c2ccccc2)n1)c1ccccc1` (configuration not stated), the 50% inhibitory concentration (IC50) in data set [2] is over 50000 nM; in data set [3], over 5000 nM.

As for `O=C(Nc1ccn(-c2cncc(F)c2)n1)C1(c2cc(F)ccc2F)CC1`, the results for the hepatocyte CLint in data set [1] and in data set [4] were 25 µL/min/1e6 cells and 6 µL/min/1e6 cells, respectively. The IC50 in data set [2] was determined as 550 nM; in data set [3], 170 nM.

`CN(C)C(C(=O)Nc1ccn(-c2ccccc2)n1)c1ccccc1` (configuration not stated): the concentration for half-maximal inhibition (IC50) in data set [2] is over 50000 nM; in data set [3], 1700 nM.

As for `O=C(Nc1ccn(-c2cncc(F)c2)n1)C1(c2ccc(F)cc2)CC1`, the figures for the hepatocyte CLint in data set [1] and in data set [4] were 88 µL/min/1e6 cells and 4 µL/min/1e6 cells, respectively. For the same compound, the half-maximal inhibitory concentration (IC50) in data set [2] was found to be 830 nM; in data set [3], 100 nM.

As for `O=C(Nc1ccn(-c2cncc(F)c2)n1)C1(c2cccc(F)c2)CC1`, the hepatocyte CLint in data set [1] worked out at 97 µL/min/1e6 cells; in data set [4], 8 µL/min/1e6 cells. Also, the IC50 is 1600 nM in data set [2] and 190 nM in data set [3].

Take `O=C(Nc1ccn(-c2cncc(F)c2)n1)C1(c2ccccc2F)CC1`: the hepatocyte CLint in data set [1] was determined as 68 µL/min/1e6 cells; in data set [4], 10 µL/min/1e6 cells. The results for the 50% inhibitory concentration (IC50) in data set [2] and in data set [3] were 1200 nM and 18 nM, respectively.

With `O=C(Nc1ccn(-c2ncns2)n1)C1(c2ccccc2F)CC1`, the values for the hepatocyte CLint in data set [1] and in data set [4] were 25 µL/min/1e6 cells and 14 µL/min/1e6 cells, respectively. The IC50 turned out to be 400 nM in data set [2] and 18 nM in data set [3].

For the compound `O=C(Nc1ccn(-c2cncc(F)c2)n1)C1(c2ccccc2)CC1`, the hepatocyte CLint in data set [1] was found to be 50 µL/min/1e6 cells; in data set [4], 7 µL/min/1e6 cells. Further, the IC50 was found to be 560 nM in data set [2] and 22 nM in data set [3].

Turning to `C[C@H](C(=O)Nc1ccn(-c2ccccc2)n1)c1ccccc1`, the results for the hepatocyte CLint in data set [1] and in data set [4] were 308 µL/min/1e6 cells and 37 µL/min/1e6 cells, respectively. The IC50 in data set [2] came out at 2000 nM; in data set [3], 38 nM.

For `O=C(Cc1ccccc1F)Nc1nccc(-c2ccccc2)n1`, the 50% inhibitory concentration (IC50) in data set [2] was over 50000 nM; in data set [3], over 5000 nM.

(Values after ChEMBL document CHEMBL5131397, “Discovery and Optimization of Pyrazole Amides as Inhibitors of ELOVL1” (J Med Chem, 2021).)
